In ChEMBL document CHEMBL1932945, “One-pot regioselective synthesis of tetrahydroindazolones and evaluation of their antiproliferative and Src kinase inhibitory activities” (Bioorg Med Chem Lett, 2012):
Calls of active or inactive are those of the source. The rule behind the calls is not given here.

Columns and labels:
SK-OV-3 = assay: Antiproliferative activity against human SKOV3 cells overexpressing c-Src at 50 uM after 72 hrs by Cell titer assay; format: functional; conditions: for inhibition at 50 µM: SK-OV-3, 72 h
[1] = biological target: Proto-oncogene tyrosine-protein kinase Src (Homo sapiens, UniProt P12931); assay: Inhibition of His6-tagged c-Src kinase domain using AEEEIYGEFEAKKKK as substrate pre-incubated for 10 mins before substrate addition measured after 30 mins by Transcreener ADP2 FI Assay
Sequence of Proto-oncogene tyrosine-protein kinase Src (P12931 2-536 limits assumed): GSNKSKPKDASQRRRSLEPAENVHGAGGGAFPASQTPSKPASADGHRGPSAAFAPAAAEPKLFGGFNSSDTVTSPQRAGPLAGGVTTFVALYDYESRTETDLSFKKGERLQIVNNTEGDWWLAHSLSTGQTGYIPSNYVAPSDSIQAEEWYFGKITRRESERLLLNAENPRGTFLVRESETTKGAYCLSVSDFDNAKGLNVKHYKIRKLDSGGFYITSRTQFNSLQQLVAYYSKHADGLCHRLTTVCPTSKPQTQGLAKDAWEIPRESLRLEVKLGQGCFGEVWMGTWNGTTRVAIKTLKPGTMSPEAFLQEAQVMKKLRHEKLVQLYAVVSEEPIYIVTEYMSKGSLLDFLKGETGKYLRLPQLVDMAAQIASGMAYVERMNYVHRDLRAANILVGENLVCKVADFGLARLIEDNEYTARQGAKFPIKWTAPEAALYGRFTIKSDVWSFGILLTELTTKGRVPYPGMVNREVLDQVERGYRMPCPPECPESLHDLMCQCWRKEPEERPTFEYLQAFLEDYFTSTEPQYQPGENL

HT-29 = assay: Antiproliferative activity against human HT-29 cells overexpressing c-Src at 50 uM after 72 hrs by Cell titer assay; format: functional; conditions: for inhibition at 50 µM: HT-29, 72 h

Question: What does the source list for `O=C1CCCc2nn(-c3ccccc3F)c(-c3ccc(Cl)c(Cl)c3)c21`?
Answer: inhibition (SK-OV-3): Active; IC50 [1]: > 150 µM; inhibition (HT-29): Active

Question: Which results are given for `COc1ccc(-n2nc3c(c2-c2ccc(Cl)c(Cl)c2)C(=O)CCC3)cc1O`?
Answer: inhibition (SK-OV-3): Active; IC50 [1]: > 150 µM; inhibition (HT-29): Active

Question: With `CC1(C)CC(=O)c2c(nn(-c3cccs3)c2C2CCCCC2)C1` as the compound, how does the inhibition at 50 µM (SK-OV-3) read?
Answer: Its inhibition at 50 µM is 49%.

Question: And the IC50 [1]?
Answer: The IC50 was 77.3 µM.

Question: And the inhibition at 50 µM (HT-29)?
Answer: Its inhibition at 50 µM is 48%.

Question: Which inhibition (SK-OV-3) does the source give for `Cc1ccc(-n2nc3c(c2-c2ccc(Cl)c(Cl)c2)C(=O)CC(C)(C)C3)cc1` here?
Answer: Its inhibition is “Active”.

Question: And the IC50 [1]?
Answer: Its IC50 is > 150 µM.

Question: What about the inhibition (HT-29) of the same compound?
Answer: Its inhibition is “Active”.

Question: How did the inhibition (SK-OV-3) turn out when `CC1(C)CC(=O)c2c(nn(-c3ccc([N+](=O)[O-])cc3)c2-c2ccc(Cl)c(Cl)c2)C1` was run?
Answer: The inhibition was “Active”.

Question: And the IC50 [1]?
Answer: The IC50 was > 150 µM.

Question: What about the inhibition (HT-29) of the same compound?
Answer: The inhibition was “Active”.

Question: `O=C1CCCc2nn(-c3ccccc3)c(-c3ccc(Cl)c(Cl)c3)c21` was tested. Which inhibition (SK-OV-3) did it give?
Answer: The inhibition was “Active”.

Question: And the IC50 [1]?
Answer: Its IC50 is 65.8 µM.

Question: What about the inhibition at 50 µM (HT-29) of the same compound?
Answer: The inhibition at 50 µM was 65%.

Question: `COc1ccc(-n2nc3c(c2-c2ccc(Cl)c(Cl)c2)C(=O)CC(C)(C)C3)cc1O` was tested. Which inhibition (SK-OV-3) did it give?
Answer: Its inhibition is “Active”.

Question: What about the IC50 [1] of the same compound?
Answer: Its IC50 is > 150 µM.

Question: And the inhibition (HT-29)?
Answer: Its inhibition is “Active”.

Question: What does the source list for `O=C1CCCc2nn(-c3ccc(O)cc3)c(-c3ccc(Cl)c(Cl)c3)c21`?
Answer: inhibition (SK-OV-3): Active; IC50 [1]: > 150 µM; inhibition (HT-29): Active

Question: With `CC1(C)CC(=O)c2c(nn(-c3ccc(O)cc3)c2-c2ccc(Cl)c(Cl)c2)C1` as the compound, how does the inhibition (SK-OV-3) read?
Answer: Its inhibition is “Active”.

Question: And the IC50 [1]?
Answer: The IC50 was 66.6 µM.

Question: What about the inhibition (HT-29) of the same compound?
Answer: The inhibition was “Active”.

Question: For `COc1ccc(-n2nc3c(c2-c2ccc(C(C)(C)C)cc2)C(=O)CC(C)(C)C3)cc1`, which inhibition (SK-OV-3) is on record?
Answer: The inhibition was “Active”.

Question: What about the IC50 [1] of the same compound?
Answer: The IC50 was 35.1 µM.

Question: What about the inhibition (HT-29) of the same compound?
Answer: Its inhibition is “Active”.

Question: With `CC1(C)CC(=O)c2c(nn(-c3ccc(Cl)cc3)c2-c2ccc(C(C)(C)C)cc2)C1` as the compound, how does the inhibition (SK-OV-3) read?
Answer: The inhibition was “Active”.

Question: And the IC50 [1]?
Answer: The IC50 was > 150 µM.

Question: And the inhibition (HT-29)?
Answer: The inhibition was “Active”.

Question: How did the inhibition (SK-OV-3) turn out when `O=C1CCCc2nn(-c3ccc(Cl)cc3)c(-c3ccc(Cl)c(Cl)c3)c21` was run?
Answer: The inhibition was “Active”.

Question: And the IC50 [1]?
Answer: Its IC50 is 81 µM.

Question: And the inhibition (HT-29)?
Answer: The inhibition was “Active”.

Question: Which results are given for `COc1ccc(-n2nc3c(c2-c2ccc(Cl)c(Cl)c2)C(=O)CC(C)(C)C3)cc1`?
Answer: inhibition (SK-OV-3): Active; IC50 [1]: 94.1 µM; inhibition (HT-29): Active

Question: With `Cc1ccc(-c2c3c(nn2-c2ccc[nH]2)CC(C)(C)CC3=O)cc1Cl` as the compound, how does the inhibition (SK-OV-3) read?
Answer: The inhibition was “Active”.

Question: And the IC50 [1]?
Answer: Its IC50 is > 150 µM.

Question: And the inhibition (HT-29)?
Answer: Its inhibition is “Active”.

Question: How did the inhibition (SK-OV-3) turn out when `Cc1ccc(-c2c3c(nn2-c2ccncc2)CC(C)(C)CC3=O)cc1Cl` was run?
Answer: The inhibition was “Active”.

Question: And the IC50 [1]?
Answer: Its IC50 is 74.3 µM.

Question: And the inhibition at 50 µM (HT-29)?
Answer: Its inhibition at 50 µM is 65%.

Question: What does the source list for `O=C1CCCc2nn(-c3cccs3)c(-c3ccc(Cl)c(Cl)c3)c21`?
Answer: inhibition at 50 µM (SK-OV-3): 58%; IC50 [1]: > 150 µM; inhibition at 50 µM (HT-29): 62%

Question: What does the source list for `Cc1ccc(-n2nc3c(c2-c2ccc(C(C)(C)C)cc2)C(=O)CC(C)(C)C3)cc1`?
Answer: inhibition (SK-OV-3): Active; IC50 [1]: > 150 µM; inhibition (HT-29): Active

Question: With `Cc1ccc(-n2nc3c(c2C2CCCCC2)C(=O)CCC3)cc1` as the compound, how does the inhibition (SK-OV-3) read?
Answer: Its inhibition is “Active”.

Question: What about the IC50 [1] of the same compound?
Answer: Its IC50 is 57.7 µM.

Question: And the inhibition (HT-29)?
Answer: Its inhibition is “Active”.

Question: With `Cc1ccc(-n2nc3c(c2-c2ccc(Cl)c(Cl)c2)C(=O)CCC3)cc1` as the compound, how does the inhibition at 50 µM (SK-OV-3) read?
Answer: Its inhibition at 50 µM is 49%.

Question: What about the IC50 [1] of the same compound?
Answer: Its IC50 is > 150 µM.

Question: What about the inhibition at 50 µM (HT-29) of the same compound?
Answer: The inhibition at 50 µM was 48%.

Question: Which results are given for `COc1ccc(-n2nc3c(c2-c2ccc(C(C)(C)C)cc2)C(=O)CC(C)(C)C3)cc1OC`?
Answer: inhibition (SK-OV-3): Active; IC50 [1]: > 150 µM; inhibition at 50 µM (HT-29): 65%

Question: `CC1(C)OC(=O)c2c(nn(-c3ccc(Cl)cc3)c2-c2ccc(C(C)(C)C)cc2)O1` was tested. Which inhibition (SK-OV-3) did it give?
Answer: The inhibition was “Active”.

Question: What about the IC50 [1] of the same compound?
Answer: The IC50 was > 150 µM.

Question: What about the inhibition (HT-29) of the same compound?
Answer: Its inhibition is “Active”.

Question: How did the inhibition (SK-OV-3) turn out when `CC1(C)OC(=O)c2c(nn(-c3ccc(Cl)cc3)c2C2CCCCC2)O1` was run?
Answer: The inhibition was “Active”.

Question: And the IC50 [1]?
Answer: Its IC50 is > 150 µM.

Question: What about the inhibition (HT-29) of the same compound?
Answer: The inhibition was “Active”.

Question: With `CC1(C)CC(=O)c2c(nn(-c3ccccc3)c2-c2ccc(Cl)c(Cl)c2)C1` as the compound, how does the inhibition (SK-OV-3) read?
Answer: Its inhibition is “Active”.

Question: What about the IC50 [1] of the same compound?
Answer: The IC50 was 62.1 µM.

Question: And the inhibition (HT-29)?
Answer: Its inhibition is “Active”.

Question: `COc1ccc(-n2nc3c(c2-c2ccc(Cl)c(Cl)c2)C(=O)CCC3)cc1` was tested. Which inhibition (SK-OV-3) did it give?
Answer: The inhibition was “Active”.

Question: And the IC50 [1]?
Answer: Its IC50 is > 150 µM.

Question: What about the inhibition (HT-29) of the same compound?
Answer: The inhibition was “Active”.

Question: Which inhibition (SK-OV-3) does the source give for `CC1(C)CC(=O)c2c(nn(-c3cccs3)c2-c2ccc(Cl)c(Cl)c2)C1` here?
Answer: The inhibition was “Active”.

Question: What about the IC50 [1] of the same compound?
Answer: The IC50 was > 150 µM.

Question: And the inhibition (HT-29)?
Answer: Its inhibition is “Active”.

Question: Which inhibition (SK-OV-3) does the source give for `O=C1CCCc2nn(-c3ccc([N+](=O)[O-])cc3)c(-c3ccc(Cl)c(Cl)c3)c21` here?
Answer: Its inhibition is “Active”.

Question: And the IC50 [1]?
Answer: Its IC50 is > 150 µM.

Question: What about the inhibition (HT-29) of the same compound?
Answer: Its inhibition is “Active”.

Question: For `COc1cccc(-n2nc3c(c2-c2ccc(C)c(Cl)c2)C(=O)CCC3)c1`, which inhibition (SK-OV-3) is on record?
Answer: Its inhibition is “Active”.

Question: What about the IC50 [1] of the same compound?
Answer: The IC50 was 82.7 µM.

Question: What about the inhibition (HT-29) of the same compound?
Answer: Its inhibition is “Active”.

Question: For `CC1(C)CC(=O)c2c(nn(-c3ccc([N+](=O)[O-])cc3)c2C2CCCCC2)C1`, which inhibition (SK-OV-3) is on record?
Answer: The inhibition was “Active”.

Question: And the IC50 [1]?
Answer: The IC50 was > 150 µM.

Question: What about the inhibition (HT-29) of the same compound?
Answer: The inhibition was “Active”.

Question: Which inhibition (SK-OV-3) does the source give for `O=C1CCCc2nn(-c3cccc(Cl)c3)c(C3CCCCC3)c21` here?
Answer: Its inhibition is “Active”.

Question: And the IC50 [1]?
Answer: Its IC50 is 58.4 µM.

Question: What about the inhibition (HT-29) of the same compound?
Answer: The inhibition was “Active”.

Question: For `CC1(C)CC(=O)c2c(nn(-c3ccc[nH]3)c2-c2ccc(Cl)c(Cl)c2)C1`, which inhibition (SK-OV-3) is on record?
Answer: The inhibition was “Active”.

Question: What about the IC50 [1] of the same compound?
Answer: Its IC50 is > 150 µM.

Question: And the inhibition (HT-29)?
Answer: Its inhibition is “Active”.

Question: What does the source list for `Cc1ccc(-c2c3c(nn2-c2ccc(Cl)cc2)CC(C)(C)CC3=O)cc1Cl`?
Answer: inhibition (SK-OV-3): Active; IC50 [1]: 132 µM; inhibition (HT-29): Active

Question: With `COc1cccc2c1C(=O)c1c(O)c3c(c(O)c1C2=O)C[C@@](O)(C(=O)CO)C[C@@H]3O[C@H]1C[C@H](N)[C@H](O)[C@H](C)O1` as the compound, how does the inhibition (SK-OV-3) read?
Answer: Its inhibition is “Active”.

Question: And the inhibition (HT-29)?
Answer: Its inhibition is “Active”.

Question: `CC1(C)CC(=O)c2c(nn(-c3ccc(Cl)c(Cl)c3)c2-c2ccc(Cl)cc2)C1` was tested. Which inhibition (SK-OV-3) did it give?
Answer: The inhibition was “Active”.

Question: And the IC50 [1]?
Answer: Its IC50 is 86 µM.

Question: And the inhibition (HT-29)?
Answer: The inhibition was “Active”.
